The nature of the data set: Human HepG2 cell viability assay in 384 well format. Type of data set: toxicity, cell-based. Also on record: dose 125 nL, time 70.5 hour; cytotoxicity at 70.5 h: concentration not given beside the values. To be noted: HepG2 cells, read-out: Inhibition.
With `CCOC(C(=O)N1CCn2c(CC)nnc2C1)c1ccccc1` (centres undefined), the cytotoxicity at 70.5 h was -11.9%.
For `Cc1ccc(CNCc2cccc3cccnc23)c(OC2CCOC2)c1` (centres undefined) the value was 12.2%; for `CC(=O)N1CCC(NC(=O)N2CCCC2c2ccsc2)CC1` (centres undefined), 6.84%; for `O=C(Cc1cc2c(cc1Br)OCCO2)NC1CCS(=O)(=O)C1` (centres undefined), 7.44%.
For `CN(C)CCN(Cc1ccccn1)C(=O)Nc1cccc(F)c1` the value was -9.47%; for `CN(Cc1ccncc1)C(=O)c1ccc2c(c1O)OC(C)(C)C2`, -5.32%.
In the case of `CN(CCNC(=O)N1CCCC1)C(=O)OC(C)(C)C`, the cytotoxicity at 70.5 h is -11.5%.
As to `N#CCCN(Cc1ccccn1)C(=O)Nc1cccc(F)c1`, the cytotoxicity at 70.5 h was -6.04%.
For `CS(=O)(=O)CCCOc1cccc(-n2ccnc2)c1` the value was -2.41%; for `CN(C)S(=O)(=O)CCCOc1cccc(-n2ccnc2)c1`, -3.93%; for `Nc1nccnc1C(=O)N(Cc1ccccc1O)CC1CCCO1` (centres undefined), -13.9%.
As for `Cc1nnc(CN(C)C(=O)C(CC(C)C)N2CCCCC2=O)n1C` (centres undefined), the cytotoxicity at 70.5 h was -5.01%.
Turning to `Cc1oc(-c2ccccc2)nc1C(=O)NC1=NCCS1`, the cytotoxicity at 70.5 h is -0.24%.
Under `Cc1ccc2c(c1)N(C(=O)C1CCCOC1)CCC2` (centres undefined) stands -4.9%; under `Cc1ccc(CNCc2cccc3cn[nH]c23)c(OC2CCOC2)c1` (centres undefined), 3.6%; under `Cc1nc(C(NC(=O)CC(F)(F)F)c2ccc(Cl)cc2)no1` (centres undefined), -2.37%.
Under `COCC(=O)NC(c1ccc(Cl)cc1)c1noc(C)n1` (centres undefined) stands -2.49%.
Under `O=C(NS(=O)(=O)c1cnn(-c2ccccc2F)c1)c1ccoc1` stands 9.38%.
`N#CCCN(Cc1ccccn1)C(=O)Nc1cccnc1`: the cytotoxicity at 70.5 h is -7.42%.
Under `CCOC1CCN(C(=O)NCCN(C)C(=O)OC(C)(C)C)CC1` stands -3.79%.
Under `Cc1ccc(NCc2cccc3cn[nH]c23)cc1OC1CCOC1` (centres undefined) stands -0.654%; under `C[S+]([O-])c1cccc(NC(=O)N(CCC#N)Cc2ccccn2)c1` (centres undefined), -12%.
For `O=C(c1nccc2ccccc12)N(Cc1ccco1)CC1CCCO1` (centres undefined) the value was 9.69%.
Turning to `COC(=O)N1CCC(NC(=O)N2CCCC2c2ccsc2)CC1` (centres undefined), the cytotoxicity at 70.5 h is -4.05%.
Regarding `COc1ccc(Cl)cc1CN(C)CC(=O)/N=c1\cc[nH]n1C(C)C1CC1` (centres undefined), the cytotoxicity at 70.5 h worked out at 20.8%.
As to `CCc1n[nH]c(C2CN(Cc3ncc(CC)o3)CCO2)n1` (centres undefined), the cytotoxicity at 70.5 h worked out at 51.9%.
Under `CN1CCCN(CCCNC2CCc3cc4c(cc32)OCCO4)CC1` (centres undefined) stands 8.36%; under `CCN(C(=O)c1cc2c([nH]c1=O)CCCC2=O)C1CCCCC1`, -5.73%; under `CCN(C(=O)CN1CCCC1c1ccc(F)cc1)c1ccccc1C` (centres undefined), -3.01%.
For `CCN(C(=O)CN1CCCC1c1ccc(OC)cc1)c1ccccc1` (centres undefined) the value was 2.59%; for `CCOc1ccccc1OCC(=O)NCc1ncc(C)c(OC)c1C`, -10.2%.
For `COc1ccccc1OCC(=O)NCc1ncc(C)c(OC)c1C` the value was 11.5%; for `CN(Cc1cnn(C)c1)C(=O)C1COCC(=O)N1Cc1ccccc1` (centres undefined), -4.96%.
In the case of `COc1c(C)cnc(CNC(=O)CCOCc2ccccc2)c1C`, the cytotoxicity at 70.5 h was -3.15%.
For the compound `CC(C)c1cccc(-n2cc(O)c(C(=O)O)n2)c1`, the cytotoxicity at 70.5 h is -5.44%.
For `CNC(=O)c1ccc(CNC(=O)c2cc(C(C)C)n(C)n2)cc1` the value was 10.9%; for `CCCN(C(=O)c1cc2c([nH]c1=O)CCCC2=O)C1CCCCC1`, 27.9%.
As for `CC(c1ccco1)N(C(=O)c1cc2c([nH]c1=O)CCCC2=O)C1CC1` (centres undefined), the cytotoxicity at 70.5 h was found to be 2.68%.
With `CCC(C)n1cnc(S(=O)(=O)N(C)C)c1` (centres undefined), the cytotoxicity at 70.5 h came to 14.5%.
For `CCC(C)n1cnc(S(=O)(=O)N(Cc2cccnc2)C(C)C)c1` (centres undefined) the value was 3.97%; for `CCC(C)n1cnc(S(=O)(=O)N(C)c2cccnc2N(C)C)c1` (centres undefined), -7.28%.
For `COc1ccc2c(c1)C(NCCc1ccccn1)CCCO2` (centres undefined), the cytotoxicity at 70.5 h was 16.8%.
Under `O=c1[nH]nc(CNc2ncc(Cl)cn2)[nH]1` stands 28.8%; under `O=C(CN1CCCc2c(F)cc(Br)cc21)N1CCN(C(=O)C2CC2)CC1`, 17.8%; under `COCCN(CCOC)C(=O)NC1CCCCC1`, -4.8%.
For the compound `COCc1nc(CNc2cccc(-c3nc(C)c(C)o3)c2)cs1`, the cytotoxicity at 70.5 h is -16.1%.
Under `CC(C)c1cccc(-n2cc(O)c(C(=O)NCCCn3cccn3)n2)c1` stands -5.65%.
Under `COc1ccc2c(c1)C(NCCc1ncc(C)s1)CCCO2` (centres undefined) stands -7.84%; under `COCC(=O)NCCSCCOc1cccc(Br)c1`, 32%; under `CC(C)(O)CN1CCN(C(=O)COCC2CC2)CC1`, 2.07%.
Under `O=C(CCCc1ccccn1)NCC(O)c1c(F)cccc1F` (centres undefined) stands -1.43%.
As for `Cc1nc(C2CCCN2C(=O)CN(C)Cc2ccccc2)no1` (centres undefined), the cytotoxicity at 70.5 h was -2.86%.
Regarding `CC(c1cccnc1)N1CCN(CCO)CC1` (centres undefined), the cytotoxicity at 70.5 h is 7.45%.
Under `NC(=O)NC(CC(=O)NCCc1cccc(F)c1)c1ccccc1` (centres undefined) stands -6.09%.
Take `NC(=O)NC(CC(=O)NCCc1ccc(F)cc1)c1ccccc1` (centres undefined): the cytotoxicity at 70.5 h worked out at 1.48%.
As to `CCC(O)CN(CC(=O)Nc1cc(C)no1)c1ccccc1` (centres undefined), the cytotoxicity at 70.5 h was -3.59%.
Under `CC(C)(C)C(O)CN1CCN(C(=O)COCC2CC2)CC1` (centres undefined) stands 1.65%; under `CC(C)(O)CN1CCN(C(=O)COCC(F)(F)F)CC1`, 15.1%.
For the compound `COc1cccc(SCC(=O)N2CCCC(N3CCCC3=O)C2)c1` (centres undefined), the cytotoxicity at 70.5 h was -1.58%.
For `O=C(CSc1ccccc1)N1CCC(N2CCCCC2=O)CC1` the value was 19%.
For `CCN(Cc1ccoc1)C(C(N)=O)c1ccc(Br)cc1` (centres undefined) the value was 16.2%; for `CC(C)C(O)CNC(=O)CCCc1ccccn1` (centres undefined), 2.25%.
Turning to `CCCc1ccc(S(=O)(=O)NC2(CC(N)=O)CCC2)cc1`, the cytotoxicity at 70.5 h was determined as 1.66%.
For `Cc1[nH]ncc1C(C)NCc1cccnc1` (centres undefined) the value was 5.33%; for `CC(=O)Nc1ccc(C(=O)N2CCOc3nc(C)ccc32)cc1`, -0.0601%.
Under `COCC(=O)NCCc1ccc(Cl)s1` stands -9.93%; under `O=C(CN1CCN(CCO)CC1)NC(C1CC1)C1CC1`, -5.18%.
As for `CCN(Cc1ccc(Cl)s1)S(=O)(=O)CC`, the cytotoxicity at 70.5 h amounted to 0.4%.
For the compound `CCN(Cc1ccc(Cl)s1)S(=O)(=O)CCOC`, the cytotoxicity at 70.5 h was -13.3%.
For the compound `c1csc(CCN2CCCC2c2noc(C3CC3)n2)c1` (centres undefined), the cytotoxicity at 70.5 h was -7.22%.
For `Cc1nc(C2CCCN2CCc2cccs2)no1` (centres undefined) the value was -10.4%.
Turning to `CC(C(=O)N1CCc2sccc2C1)N1CCCN(C2CC2)CC1` (centres undefined), the cytotoxicity at 70.5 h is -10.7%.
Under `Cc1nc(C2CCCN2CCc2ccccn2)no1` (centres undefined) stands -5.46%.
With `Cn1ccc(C(=O)NCc2cccc(Cn3ccnc3)c2)cc1=O`, the cytotoxicity at 70.5 h is -4.36%.
Under `Cc1nccn1Cc1cccc(CNC(=O)c2ccn(C)c(=O)c2)c1` stands 13.1%.
Under `Cc1ccc2nc(NCCCN3CCCCCC3=O)n(C)c(=O)c2c1` stands -20%; under `Cc1nc(NC(=O)C(C)S(C)(=O)=O)sc1Cc1ccc(F)cc1` (centres undefined), 7.99%; under `Cc1ccc(Cc2sc(NC(=O)C(C)S(C)(=O)=O)nc2C)cc1` (centres undefined), -3.98%.
For `Cn1nc(C(=O)NCc2cccc(Cn3ccnc3)c2)ccc1=O` the value was 3.47%; for `CC(=O)NC1CCCN(C(=O)Nc2nnc(C(C)C)s2)C1` (centres undefined), 0.76%.
Regarding `CC(C(=O)N1CCc2sccc2C1)N1CCC(N2CCCC2)CC1` (centres undefined), the cytotoxicity at 70.5 h was found to be 0.91%.
For `COc1cc(OC)c(CNC(=O)NCc2ccc(C#N)cc2)c(OC)c1` the value was 3.35%; for `N#Cc1ccc(NC2CCN(c3ncccn3)CC2)cc1Cl`, 7.18%.
Under `Cc1cc(C(=O)NS(C)(=O)=O)ccc1I` stands -4.1%; under `Cn1ncnc1NS(=O)(=O)c1ccc(F)cc1`, -0.583%; under `Cc1c(CNC(=O)C2CCCN2C(=O)C2CC2)oc2ccccc12` (centres undefined), -7.22%.
Under `CCc1nsc(NC2CCOC3(CCCC3)C2)n1` (centres undefined) stands 1.42%; under `CC(C)c1nnc(CNc2nc(-c3cccnc3)nc3c2CCC3)n1C`, -1.97%.
As to `COC(=O)CCN1CCC(NC(=O)OC(C)(C)C)CC1`, the cytotoxicity at 70.5 h came out at 1.05%.
Under `CCOCc1nnc(NCc2cccc(C)c2)o1` stands -3.75%; under `CS(=O)(=O)N1CCC(Nc2ccc(C#N)c(C(F)(F)F)c2)CC1`, 8.33%.
With `Cc1ncc(CN(C)CC(O)c2ccc(OC(F)(F)F)cc2)s1` (centres undefined), the cytotoxicity at 70.5 h is -3.36%.
As to `Cc1occc1CNC(=O)C1CCCN1C(=O)C1CC1` (centres undefined), the cytotoxicity at 70.5 h was -6.76%.
Under `CCc1nc(C2CCCN2CCc2cccs2)no1` (centres undefined) stands 17.3%; under `Cc1ccc2cccc(S(=O)(=O)N(C)C3CCCN(C)C3)c2n1` (centres undefined), 0.353%.
Under `CCc1nccn1CC(=O)Nc1cccc(C(=O)N(C)C)c1` stands 7.42%; under `COC(=O)CNC(=O)CCCn1cnc2ccccc2c1=O`, -1.4%.
In the case of `O=C(CCn1c(=O)oc2ccccc21)NCC(O)c1ccc(Cl)cc1` (centres undefined), the cytotoxicity at 70.5 h was determined as 9.7%.
For `Cc1cc(CN(C)C(=O)CN2CCCCCC2=O)no1` the value was -10.3%; for `Cc1cc(NC(=O)Cc2ccc3c(c2)OCO3)n(C)n1`, -0.417%.
Under `O=C(CC1CCCO1)NCCCC(=O)Nc1ccc(Cl)cc1` (centres undefined) stands -7.07%; under `CCOC(C)C(=O)NCCNS(C)(=O)=O` (centres undefined), -6.01%; under `O=C(Cc1cccc(F)c1)NCCNS(=O)(=O)C1CCCC1`, -12.5%.
For `Cc1n[nH]c2ncc(CNC3CCCN(c4ncccn4)C3)cc12` (centres undefined) the value was 0.0496%.

The values above are taken from ChEMBL document CHEMBL3507680, “University of Dundee, Gates Library screen for HepG2 cell viability”.
